What was measured:
Assay type in all cases: cell-based
[1] = tested on: IL6; experiment: LPS stimulated IL6 inhibition assay in PBMC; settings: Homo sapiens, PBMC, 24 h, human PBMCs, LPS stimulation, compound overnight, IL6 by MSD after 24 hrs; for Dmax: read-out: LPS Stim IL6 inhibition Dmax; for IC50: read-out: LPS stim IL6 inhibition IC50
Protocol: (§1) IL-1β, LPS, or R848 Stimulated IL6 Inhibition and IL-1β Stimulated IL8 Inhibition Assay
(§2) Human PBMC cells were seeded at 2.0×10^6 cells/mL, treated with compound overnight, and dosed with the EC50 concentration of each stimulant (either IL-1B. LPS, or R848) was determined for each donor. After 24 hrs, media was collected and analyzed by MSD for IL6 and/or IL8 levels.

[2] = tested on: IL6; experiment: R848 stimulated IL6 inhibition assay in PBMC; settings: PBMC, human PBMCs, R848 stimulation, compound overnight, IL6 by MSD after 24 hrs; for Dmax: Homo sapiens, 24 h, read-out: R848 stim IL6 inhibition Dmax; for IC50: read-out: R848 stim IL6 inhibition IC50
Protocol: as §1, §2

[3] = target: T1, IRAK-4 (Homo sapiens, UniProt Q9NWZ3); experiment: IRAK-4 ELISA, PBMC degradation; design: endogenous in cells; host or cells: PBMC; settings: treated overnight
T1 sequence (Q9NWZ3 1-460): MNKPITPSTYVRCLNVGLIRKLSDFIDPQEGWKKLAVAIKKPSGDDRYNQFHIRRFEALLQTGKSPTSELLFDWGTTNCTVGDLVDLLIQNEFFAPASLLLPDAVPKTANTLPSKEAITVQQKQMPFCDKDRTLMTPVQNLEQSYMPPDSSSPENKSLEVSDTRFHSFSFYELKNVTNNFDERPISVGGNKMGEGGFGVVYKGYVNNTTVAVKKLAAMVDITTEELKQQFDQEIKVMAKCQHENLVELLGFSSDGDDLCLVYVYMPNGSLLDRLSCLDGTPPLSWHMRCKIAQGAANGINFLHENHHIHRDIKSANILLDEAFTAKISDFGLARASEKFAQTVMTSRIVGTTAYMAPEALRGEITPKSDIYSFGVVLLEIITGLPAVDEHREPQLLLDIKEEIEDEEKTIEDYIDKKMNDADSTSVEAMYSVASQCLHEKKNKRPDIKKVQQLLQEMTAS
Procedure, shortened: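 IRAK-4 levels measured by matched-antibody-pair ELISA on lysates after overnight compound exposure. Cells seeded same day: PBMC at 2×10^6/ml, OCI-Ly10 at 1×10^6/ml.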

Row | IC50 [1] | IC50 [2] | DC50 [3] | Dmax [3] | PBMC DC90 [3] | SMILES | Dmax [1] | Dmax [2]
1 | 0.01 to 0.05 µM | 0.01 to 0.05 µM | 0.001 to 0.005 µM | ≥ 90% | A (A represents a DC90 value <10.0 nM) | CC(C)Oc1cc2c(cc1NC(=O)c1cnn3cccnc13)CN(C1CCN(CC3CCN(c4ccc5c(c4)C(=O)N([C@@H]4CCC(=O)NC4=O)C5=O)CC3)CC1)C2=O [Example 47] | 80 to 90% | 80 to 90%
2 | 0.01 to 0.05 µM | 0.01 to 0.05 µM | < 0.001 µM | ≥ 90% | A (A represents a DC90 value <10.0 nM) | CC(C)Oc1cc2c(cc1NC(=O)c1cnn3cccnc13)CN(C1CCN(CC3CCN(c4ccc5c(c4)C(=O)N([C@H]4CCC(=O)NC4=O)C5=O)CC3)CC1)C2=O [Example 48] | 70 to 80% | ≥ 90%
3 | – | – | 0.001 to 0.005 µM | 80 to 90% | A (A represents a DC90 value <10.0 nM) | O=C1CCC(N2C(=O)c3ccc(N4CC(CN5CCC([C@H](F)CN6Cc7cc(NC(=O)c8cnn9cccnc89)c(N8CCOCC8)cc7C6=O)CC5)C4)cc3C2=O)C(=O)N1 (stereo partly drawn) [Example 412, N-(2-((2S)-2-(1-((1-(2-(2,6-dioxopiperidin-3-yl)-1,3-dioxoisoindolin-5-yl)azetidin-3-yl)methyl)piperidin-4-yl)-2-fluoroethyl)-6-morpholino-1-oxoisoindolin-5-yl)pyrazolo[1,5-a]pyrimidine-3-carboxamide] | – | –

The next lines start with the compound.

Row | SMILES | IC50 [1] | IC50 [2] | DC50 [3] | Dmax [3] | PBMC DC90 [3] | Dmax [1] | Dmax [2]
4 | O=C1CCC(N2C(=O)c3ccc(N4CCN(C[C@H]5CC[C@H](N6Cc7cc(NC(=O)c8cnn9cccnc89)c(N8CCN(CC(F)F)CC8)cc7C6=O)CC5)CC4)cc3C2=O)C(=O)N1 (stereo partly drawn) [371′] | 0.01 to 0.05 µM | 0.01 to 0.05 µM | 0.001 to 0.005 µM | ≥ 90% | B (B represents a DC90 value ≥10.0 nM and <25.0 nM) | < 70% | ≥ 90%
5 | CC(C)Oc1cc2c(cc1NC(=O)c1cnn3cccnc13)CN(C[C@@H](F)C1CN(CC3CCN(c4ccc5c(c4)C(=O)N(C4CCC(=O)NC4=O)C5=O)CC3)C1)C2=O (stereo partly drawn) [Example 19] | 0.01 to 0.05 µM | 0.01 to 0.05 µM | 0.001 to 0.005 µM | 80 to 90% | A (A represents a DC90 value <10.0 nM) | 80 to 90% | ≥ 90%
6 | CC(C)Oc1cc2c(cc1NC(=O)c1cnn3cccnc13)CN(C1CCN(CC3CCN(c4ccc5c(c4F)CN(C4CCC(=O)NC4=O)C5=O)CC3)CC1)C2=O (stereo not drawn) [Example 41] | 0.01 to 0.05 µM | < 0.01 µM | < 0.001 µM | 80 to 90% | A (A represents a DC90 value <10.0 nM) | 70 to 80% | ≥ 90%
7 | O=C1CCC(N2C(=O)c3ccc(N4CCC(CN5CCC(N6Cc7cc(NC(=O)c8cnn9cccnc89)c(OCC(F)F)cc7C6=O)CC5)CC4)cc3C2=O)C(=O)N1 (stereo not drawn) [Example 42] | 0.05 to 0.1 µM | < 0.01 µM | 0.001 to 0.005 µM | ≥ 90% | B (B represents a DC90 value ≥10.0 nM and <25.0 nM) | < 70% | < 70%
8 | CC(C)Oc1cc2c(cc1NC(=O)c1cnn3cc(Cl)cnc13)CN(C1CCN(CC3CCN(c4ccc5c(c4)C(=O)N(C4CCC(=O)NC4=O)C5=O)CC3)CC1)C2=O (stereo not drawn) [Example 43] | < 0.01 µM | 0.01 to 0.05 µM | 0.001 to 0.005 µM | ≥ 90% | B (B represents a DC90 value ≥10.0 nM and <25.0 nM) | < 70% | 80 to 90%
9 | CN1CC(Oc2cc3c(cc2NC(=O)c2cnn4cccnc24)CN(C2CCN(CC4CN(c5ccc6c(c5)C(=O)N(C5CCC(=O)NC5=O)C6=O)C4)CC2)C3=O)C1 (stereo not drawn) [Example 44] | 0.05 to 0.1 µM | 0.01 to 0.05 µM | ≥ 0.01 µM | 80 to 90% | D (D represents a DC90 value ≥50 nM) | 70 to 80% | ≥ 90%
10 | O=C1CCC(N2Cc3ccc(N4CCC(CN5CCC(N6Cc7cc(NC(=O)c8cnn9cccnc89)c(OCC(F)F)cc7C6=O)CC5)CC4)cc3C2=O)C(=O)N1 (stereo not drawn) [Example 45] | 0.01 to 0.05 µM | < 0.01 µM | 0.001 to 0.005 µM | ≥ 90% | A (A represents a DC90 value <10.0 nM) | 70 to 80% | ≥ 90%
11 | CC(C)Oc1nc2c(cc1NC(=O)c1cnn3cccnc13)CN(C1CCN(CC3CCN(c4ccc5c(c4)C(=O)N(C4CCC(=O)NC4=O)C5=O)CC3)CC1)C2=O (stereo not drawn) [Example 46] | 0.01 to 0.05 µM | 0.01 to 0.05 µM | 0.001 to 0.005 µM | ≥ 90% | A (A represents a DC90 value <10.0 nM) | 70 to 80% | ≥ 90%
12 | CC(C)Oc1cc2nn(C3CCN(CC4(F)CN(c5ccc6c(c5)C(=O)N(C5CCC(=O)NC5=O)C6=O)C4)CC3)cc2cc1NC(=O)c1cnn2cccnc12 (stereo not drawn) [Example 265, N-[2-[1-[[1-[2-(2,6-dioxo-3-piperidyl)-1,3-dioxo-isoindolin-5-yl]-3-fluoro-azetidin-3-yl]methyl]-4-piperidyl]-6-isopropoxy-indazol-5-yl]pyrazolo[1,5-a]pyrimidine-3-carboxamide] | 0.01 to 0.05 µM | – | 0.001 to 0.005 µM | ≥ 90% | A (A represents a DC90 value <10.0 nM) | ≥ 90% | –
13 | O=C1CCC(N2C(=O)c3ccc(N4CC(F)(CN5CCC([C@H](F)CN6Cc7cc(NC(=O)c8cnn9cccnc89)c(N8CCOCC8)cc7C6=O)CC5)C4)cc3C2=O)C(=O)N1 (stereo partly drawn) [Example 413] | – | – | 0.001 to 0.005 µM | 80 to 90% | B (B represents a DC90 value ≥10.0 nM and <25.0 nM) | – | –
14 | CC(C)Oc1cc2nn(C[C@@H](F)C3CCN(CC4(F)CN(c5ccc6c(c5)C(=O)N(C5CCC(=O)NC5=O)C6=O)C4)CC3)cc2cc1NC(=O)c1cnn2cccnc12 (stereo partly drawn) [Example 414] | – | – | 0.001 to 0.005 µM | 80 to 90% | B (B represents a DC90 value ≥10.0 nM and <25.0 nM) | – | –
15 | CC(C)Oc1cc2nn(C[C@@H](F)C3CCN(CC4CN(c5ccc6c(c5)C(=O)N(C5CCC(=O)NC5=O)C6=O)C4)CC3)cc2cc1NC(=O)c1cnn2cccnc12 (stereo partly drawn) [Example 415] | – | – | 0.001 to 0.005 µM | 80 to 90% | A (A represents a DC90 value <10.0 nM) | – | –
16 | CC(C)Oc1nc2nn(C3CCN(CC4(F)CN(c5ccc6c(c5)CN(C5CCC(=O)NC5=O)C6=O)C4)CC3)cc2cc1NC(=O)c1cnn2cccnc12 (stereo not drawn) [Example 416, N-[2-[1-[[1-[2-(2,6-dioxo-3-piperidyl)-1-oxo-isoindolin-5-yl]-3-fluoro-azetidin-3-yl]methyl]-4-piperidyl]-6-isopropoxy-pyrazolo[3,4-b]pyridin-5-yl]pyrazolo[1,5-a]pyrimidine-3-carboxamide] | – | – | < 0.001 µM | 80 to 90% | A (A represents a DC90 value <10.0 nM) | – | –
17 | O=C1CCC(N2C(=O)c3ccc(N4CC5(CCCN(C6CCC(n7cc8cc(NC(=O)c9cnn%10cccnc9%10)c(OCC9CC9)cc8n7)CC6)C5)C4)cc3C2=O)C(=O)N1 (stereo not drawn) [Example 417, N-(6-(cyclopropylmethoxy)-2-(4-(2-(2-(2,6-dioxopiperidin-3-yl)-1,3-dioxoisoindolin-5-yl)-2,6-diazaspiro[3.5]nonan-6-yl)cyclohexyl)-2H-indazol-5-yl)pyrazolo[1,5-a]pyrimidine-3-carboxamide] | – | – | < 0.001 µM | ≥ 90% | A (A represents a DC90 value <10.0 nM) | – | –
18 | O=C1CCC(N2Cc3cc(N4CC(F)(CN5CCC(n6cc7cc(NC(=O)c8cnn9cccnc89)c(OCC8CC8)cc7n6)CC5)C4)cc(F)c3C2=O)C(=O)N1 (stereo not drawn) [Example 420, N-[6-(cyclopropylmethoxy)-2-[1-[[1-[2-(2,6-dioxo-3-piperidyl)-7-fluoro-1-oxo-isoindolin-5-yl]-3-fluoro-azetidin-3-yl]methyl]-4-piperidyl]indazol-5-yl]pyrazolo[1,5-a]pyrimidine-3-carboxamide] | – | – | < 0.001 µM | ≥ 90% | A (A represents a DC90 value <10.0 nM) | – | –
19 | O=C1CCC(N2Cc3cc(N4CC(F)(CN5CCC(n6cc7cc(NC(=O)c8cnn9cccnc89)c(OCC8CC8)cc7n6)CC5)C4)c(F)cc3C2=O)C(=O)N1 (stereo not drawn) [Example 421] | – | – | < 0.001 µM | 80 to 90% | A (A represents a DC90 value <10.0 nM) | – | –
20 | CC(C)Oc1cc2nn(C3CCN(CC4(F)CN(c5cc6c(cn5)C(=O)N(C5CCC(=O)NC5=O)C6=O)C4)CC3)cc2cc1NC(=O)c1cnn2cccnc12 (stereo not drawn) [Example 422, N-(2-(1-((1-(2-(2,6-dioxopiperidin-3-yl)-1,3-dioxo-2,3-dihydro-1H-pyrrolo[3,4-c]pyridin-6-yl)-3-fluoroazetidin-3-yl)methyl)piperidin-4-yl)-6-isopropoxy-2H-indazol-5-yl)pyrazolo[1,5-a]pyrimidine-3-carboxamide] | – | – | 0.001 to 0.005 µM | 70 to 80% | C (C represents a DC90 value ≥25.0 nM and <50 nM) | – | –
